Measurements taken from patent US6235493A, “Amino acid substituted-cresyl violet, synthetic fluorogenic substrates for the analysis of agents in individual in vivo cells or tissue” (priority 1998, dated 2001).
Entries after “also recorded” stand apart in the source; their conditions may differ. Starred links: 1 amine or outer side, 2 acyl side, 3 side chain; linkers in the order of their positions; H or OH if unused. Non-standard residues stand in square brackets, D forms with d. Residues, ends and D or L forms follow the SMILES beside them. *: point of attachment. hPhe = N[C@@H](CCc1ccccc1)C(=O)O; Morpholide = C1CN(*)CCO1; CO = O=C([*:1])[*:2]; CH2F = FC*

Target: cathepsin B (Rattus norvegicus, UniProt P00787)
Assay: Cathepsin B activity in living CC531 colon cancer cells (CSLM, (Z-Arg)^2 -cresyl violet)
Format: cell-based
Protocol: An established rat colon carcinoma cell line, CC531, was used for all experiments. The parental cell line was obtained from a 1,2-dimethylhydrazine-induced moderately differentiated and weakly immunogenic colon adenocarcinoma in WAG-Rij rats (44). Cells were cultured in vitro at 37° C. as monolayers in Dulbecco's modification of Eagle's medium (ICN Biomedicals, Irvine, Ayrshire, UK) supplemented with 10% (w/v) fetal bovine serum, 2 mM glutamine, 100 IU penicillin/ml and 100 μg streptomycin/ml. Cells were washed in PBS and, after detachment by scraping and centrifugation (250 g, room temperature, 10 min), a single cell suspension at a final concentration of 1×10^6 cancer cells in 50 μl of PBS was obtained with a viability of at least 95% (45,46). Cell suspension were either used for cytochemical purposes or for in vivo administration to induce metastases in the liver.
Cathepsin B activity was detected in real-time in living CC531 cells and freshly prepared living rat hepatocytes after isolation by collagenase perfusion of livers of male mature rats after 24 h of starvation (47). At time point zero, cell preparations were diluted 20-fold in PBS containing either 10 μM (Z-Arg)^2 -cresyl violet (Enzyme Systems Products, Dublin, Calif.) as fluorogenic substrate for cathepsin B (48) or 10 μM substrate and 20 μM FMK (Protek, Dublin, Calif.), as selective cathepsin B inhibitor (40,41). The fluorogenic substrate is not fluorescent but after proteolytic cleavage, liberated cresyl violet is fluorescent. Synthesis of the substrate is described elsewhere in Ref. 48. The substrate was dissolved first in dimethyl formamide (final concentration in the incubation medium was 1% (v/v)). An aliquot of 100 μl of the cell suspensions was brought into a well formed by a stainless steel ring attached to a glass slide (49). Images of cells were captured in real-time with a Leica CSLM fitted to a Leica Fluovert inverted microscopic equipped with a PL APO oil-immersion objective (×63, NA 1.40). Excitation was performed at a wavelength of 560 nm and fluorescence was captured at greater than 580 nm. Excitation with the use of green light is harmless to living cells. The pinhole aperture was set at 100 giving an optimized image (50). With fixed pinhole, filter combination and a laser power setting adjusted to give minimal fading, the photomultiplier gain and photometric offset were optimized. Cells were subjected to optical serial sectioning after each 60 s of incubation up to 300 s. Images in the X-Y plane were recorded with intervals of 0.5 μm in the Z direction. For analysis, each optical section was averaged eight times. Images were recorded in a 512×512 pixel format. The size of each pixel represented 0.015 μm^2 in the object. […]

Sequence of cathepsin B (P00787 80-333): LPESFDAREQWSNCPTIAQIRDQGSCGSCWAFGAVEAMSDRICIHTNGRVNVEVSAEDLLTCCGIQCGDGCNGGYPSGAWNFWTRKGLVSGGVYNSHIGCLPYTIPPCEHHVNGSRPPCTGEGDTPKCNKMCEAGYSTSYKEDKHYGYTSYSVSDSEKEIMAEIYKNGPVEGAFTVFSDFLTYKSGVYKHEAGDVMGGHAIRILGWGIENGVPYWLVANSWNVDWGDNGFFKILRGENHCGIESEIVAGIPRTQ

## O=C(CF)[C@H](CCc1ccccc1)NC(=O)[C@H](Cc1ccccc1)NC(=O)N1CCOCC1 [FMK, Mu-Phe-homoPhe-fluoro-methylketone] ({Morpholide-CO}-Phe-[hPhe]-CH2F)
CC531 cells, 20 μM FMK
  inhibition of intracellular cathepsin B activity: not intracellular cathepsin B activity; also recorded: Activity was present intracellularly
CC531 cells, 20 μM FMK, 10 μM (Z-Arg)^2 -cresyl violet, 5 min, room temperature
  inhibition of plasma membrane-bound (extracellular) cathepsin B activity: inhibited only extracellular; also recorded: inhibited the plasma membrane-bound activity completely; also recorded: Plasma membrane-bound activity was inhibited
Inferred from lack of inhibition of intracellular activity
  uptake by living cells: had not been taken up by the living cells
